Literature values, collected in patent EP2708126A1, “Insecticidal aerosol” (priority 2012, dated 2014).

Settings: rats, through ingestion

SMILES: CC1(C)C(C=C(Cl)Cl)C1C(=O)OC(C#N)c1cccc(Oc2ccccc2)c1 (racemic) [Alpha cypermethrin]
- LD50: 79 mg/kg

SMILES: CNC(=O)Oc1cccc2c1OC(C)(C)O2 [Bendiocarb, 2,2-dimethyl-1,3-benzodioxol-4-yl-N-methylcarbamate]
- LD50: 55 mg/kg

SMILES: CC1(C)C(C=C(Cl)Cl)C1C(=O)OCc1cccc(Oc2ccccc2)c1 (stereo not drawn) [Permethrin, 3-phenoxybenzyl-3-(2,2-dichlorovinyl)-2,2-dimethylcyclopropane-carboxylate]
- LD50: 383 mg/kg
